Here are results for three compounds from ChEMBL document CHEMBL1142609, “An apigenin-derived xanthine oxidase inhibitor from Palhinhaea cernua” (J Nat Prod, 2006).

Some results are limits rather than exact numbers.

In general, IC50 refers to the midpoint of a concentration-inhibition curve.

Experiment [1] deals with T1, Xanthine dehydrogenase/oxidase (Homo sapiens, UniProt P47989). Kind of experiment: Inhibition of xanthine oxidase.
For experiment [2], the target named is T1, Xanthine dehydrogenase/oxidase. Put plainly: Inhibition of xanthine oxidase by noncompetitive Lineweaver-Burke plot. Conditions: read-out: Kinact.
The target is the same in experiment [3]. Kind of experiment: Inhibition of xanthine oxidase by competitive Lineweaver-Burke plot.

T1 sequence (P47989 whole entry): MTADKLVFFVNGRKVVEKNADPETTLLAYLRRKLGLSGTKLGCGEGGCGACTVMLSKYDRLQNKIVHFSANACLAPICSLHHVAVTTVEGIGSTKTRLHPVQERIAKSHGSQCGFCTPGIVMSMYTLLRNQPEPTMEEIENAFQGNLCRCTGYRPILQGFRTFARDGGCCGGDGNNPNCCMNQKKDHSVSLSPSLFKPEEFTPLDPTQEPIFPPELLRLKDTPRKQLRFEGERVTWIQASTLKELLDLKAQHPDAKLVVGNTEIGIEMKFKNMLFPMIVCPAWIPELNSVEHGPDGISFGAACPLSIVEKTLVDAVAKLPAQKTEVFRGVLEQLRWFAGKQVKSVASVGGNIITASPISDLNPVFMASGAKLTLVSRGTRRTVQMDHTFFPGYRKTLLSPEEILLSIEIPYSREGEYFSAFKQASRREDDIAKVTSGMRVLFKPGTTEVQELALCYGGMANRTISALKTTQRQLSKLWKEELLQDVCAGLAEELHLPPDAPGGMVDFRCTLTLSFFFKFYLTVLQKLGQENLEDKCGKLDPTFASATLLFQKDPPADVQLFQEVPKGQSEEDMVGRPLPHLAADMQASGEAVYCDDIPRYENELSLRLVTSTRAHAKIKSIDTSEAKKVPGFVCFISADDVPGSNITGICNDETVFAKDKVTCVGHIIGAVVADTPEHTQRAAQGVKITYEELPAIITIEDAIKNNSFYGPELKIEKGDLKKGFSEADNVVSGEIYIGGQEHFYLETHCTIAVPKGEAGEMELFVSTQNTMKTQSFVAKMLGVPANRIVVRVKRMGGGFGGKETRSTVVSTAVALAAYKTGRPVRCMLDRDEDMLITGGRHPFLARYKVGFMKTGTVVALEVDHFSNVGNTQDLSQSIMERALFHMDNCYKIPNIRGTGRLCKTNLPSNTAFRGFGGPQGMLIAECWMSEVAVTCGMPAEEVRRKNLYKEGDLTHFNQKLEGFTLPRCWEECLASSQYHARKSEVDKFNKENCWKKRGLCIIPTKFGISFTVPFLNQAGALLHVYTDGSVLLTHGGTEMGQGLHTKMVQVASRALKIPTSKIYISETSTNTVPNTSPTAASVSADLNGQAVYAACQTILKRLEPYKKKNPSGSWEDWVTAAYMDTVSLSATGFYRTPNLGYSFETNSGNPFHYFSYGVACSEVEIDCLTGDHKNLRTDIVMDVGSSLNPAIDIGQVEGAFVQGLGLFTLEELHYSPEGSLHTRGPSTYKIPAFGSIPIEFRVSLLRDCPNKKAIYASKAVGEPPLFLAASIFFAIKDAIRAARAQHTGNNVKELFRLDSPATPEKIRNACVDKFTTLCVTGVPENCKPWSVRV

Compound `O=C(/C=C/c1ccc(O)cc1)O[C@@H]1[C@@H](Oc2ccc(-c3cc(=O)c4c(O)cc(O)cc4o3)cc2)O[C@@H](CO)[C@H](O)[C@H]1O` yielded an IC50 in experiment [1] of 24 µM. The Ki came out at 93.7 µM in experiment [2] and 14.3 µM in experiment [3].

`O=C(/C=C/c1ccc(O)cc1)OC[C@@H]1O[C@H](Oc2ccc(-c3cc(=O)c4c(O)cc(O)cc4o3)cc2)[C@@H](OC(=O)/C=C/c2ccc(O)cc2)[C@H](O)[C@H]1O` returned an IC50 in experiment [1] of over 100 µM.

Turning to `O=C(/C=C/c1ccc(O)cc1)OC[C@@H]1O[C@H](Oc2ccc(-c3cc(=O)c4c(O)cc(O)cc4o3)cc2)[C@@H](O)[C@H](O)[C@H]1O`, the IC50 in experiment [1] was over 100 µM.
